Active and inactive are the calls of the source. The calls are words filed in the database; no cut-off is given here.
Tests used:
[1] = molecular target: Dual specificity mitogen-activated protein kinase kinase 1 (Homo sapiens) (UniProt Q02750); assay: Residual activity of human MEK1 using ERK2 (K52R) as substrate at 1 uM in presence of 32P-ATP by Hotspot assay relative to control
[2] = test system: NIH3T3; assay: Inhibition of TNF-alpha induced necroptosis in mouse 3T3SA cells assessed as increase in cell viability at 0.04 to 1 uM incubated for 18 hrs in presence of zVAD by Cell Titer-Glo luminescent cell viability assay; format: functional, cell-based; conditions: dose 0.04-1 µM
[3] = molecular target: T1, Mitogen-activated protein kinase 12 (Homo sapiens) (UniProt P53778); assay: Inhibition of human P38g using myelin basic protein as substrate at 1 uM in presence of 32P-ATP by Hotspot assay relative to control; values are per cent of control
T1 sequence (whole entry): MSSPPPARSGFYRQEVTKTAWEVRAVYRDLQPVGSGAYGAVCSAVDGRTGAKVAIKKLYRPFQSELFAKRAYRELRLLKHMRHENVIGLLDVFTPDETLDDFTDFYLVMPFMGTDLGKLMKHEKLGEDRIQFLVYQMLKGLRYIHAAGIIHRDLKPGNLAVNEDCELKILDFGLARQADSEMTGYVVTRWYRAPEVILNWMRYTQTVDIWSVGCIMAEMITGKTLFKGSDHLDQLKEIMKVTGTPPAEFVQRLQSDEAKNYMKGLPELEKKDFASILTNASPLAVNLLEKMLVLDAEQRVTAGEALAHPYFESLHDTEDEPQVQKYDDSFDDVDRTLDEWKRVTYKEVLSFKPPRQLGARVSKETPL

[4] = molecular target: RAC-beta serine/threonine-protein kinase (Homo sapiens) (UniProt P31751); assay: Inhibition of human AKT2 using KGSGSGRPRTSSFAEG as substrate at 1 uM in presence of 32P-ATP by Hotspot assay relative to control; values are per cent of control
[5] = molecular target: Ephrin type-A receptor 7 (Homo sapiens) (UniProt Q15375); assay: Inhibition of human EPHA7 using poly[Glu:Tyr] (4:1) as substrate at 1 uM in presence of 32P-ATP by Hotspot assay relative to control; values are per cent of control
[6] = molecular target: Receptor tyrosine-protein kinase erbB-4 (Homo sapiens) (UniProt Q15303); assay: Inhibition of human ERBB4/HER4 using poly[Glu:Tyr] (4:1) as substrate at 1 uM in presence of 32P-ATP by Hotspot assay relative to control; values are per cent of control
[7] = molecular target: Receptor-interacting serine/threonine-protein kinase 2 (Homo sapiens) (UniProt O43353); assay: Inhibition of human RIPK2 using myelin basic protein as substrate at 1 uM in presence of 32P-ATP by Hotspot assay relative to control; values are per cent of control
[8] = molecular target: Mitogen-activated protein kinase kinase kinase 9 (Homo sapiens) (UniProt P80192); assay: Inhibition of human MLK1/MAP3K9 using casein as substrate at 1 uM in presence of 32P-ATP by Hotspot assay relative to control; values are per cent of control
[9] = molecular target: T2, Serine/threonine-protein kinase STK11 (Homo sapiens) (UniProt Q15831); assay: Inhibition of human LKB1 using LSNLYHQGKFLQTFCGSPLYRRR as substrate at 1 uM in presence of 32P-ATP by Hotspot assay relative to control; values are per cent of control
T2 sequence (whole entry): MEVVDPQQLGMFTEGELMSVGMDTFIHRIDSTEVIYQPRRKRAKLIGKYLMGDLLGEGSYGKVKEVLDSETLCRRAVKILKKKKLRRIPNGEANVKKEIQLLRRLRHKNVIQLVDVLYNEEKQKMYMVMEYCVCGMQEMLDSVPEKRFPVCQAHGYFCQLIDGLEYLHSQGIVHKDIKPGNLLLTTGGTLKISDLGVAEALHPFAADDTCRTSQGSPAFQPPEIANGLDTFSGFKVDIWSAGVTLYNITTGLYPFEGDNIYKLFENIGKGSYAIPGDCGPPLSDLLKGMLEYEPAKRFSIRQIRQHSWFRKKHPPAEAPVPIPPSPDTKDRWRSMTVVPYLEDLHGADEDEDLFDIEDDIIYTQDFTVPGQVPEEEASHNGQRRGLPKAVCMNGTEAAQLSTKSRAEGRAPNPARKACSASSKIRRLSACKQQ

[10] = molecular target: Serine/threonine-protein kinase Chk2 (Homo sapiens) (UniProt O96017); assay: Inhibition of human CHK2 using KKKVSRSGLYRSPSMPENLNRPR as substrate at 1 uM in presence of 32P-ATP by Hotspot assay relative to control; values are per cent of control
[11] = molecular target: T3, Tyrosine-protein kinase TXK (Homo sapiens) (UniProt P42681); assay: Inhibition of human TXK using EAIYAAPFAKKK as substrate at 1 uM in presence of 32P-ATP by Hotspot assay relative to control; values are per cent of control
T3 sequence (whole entry): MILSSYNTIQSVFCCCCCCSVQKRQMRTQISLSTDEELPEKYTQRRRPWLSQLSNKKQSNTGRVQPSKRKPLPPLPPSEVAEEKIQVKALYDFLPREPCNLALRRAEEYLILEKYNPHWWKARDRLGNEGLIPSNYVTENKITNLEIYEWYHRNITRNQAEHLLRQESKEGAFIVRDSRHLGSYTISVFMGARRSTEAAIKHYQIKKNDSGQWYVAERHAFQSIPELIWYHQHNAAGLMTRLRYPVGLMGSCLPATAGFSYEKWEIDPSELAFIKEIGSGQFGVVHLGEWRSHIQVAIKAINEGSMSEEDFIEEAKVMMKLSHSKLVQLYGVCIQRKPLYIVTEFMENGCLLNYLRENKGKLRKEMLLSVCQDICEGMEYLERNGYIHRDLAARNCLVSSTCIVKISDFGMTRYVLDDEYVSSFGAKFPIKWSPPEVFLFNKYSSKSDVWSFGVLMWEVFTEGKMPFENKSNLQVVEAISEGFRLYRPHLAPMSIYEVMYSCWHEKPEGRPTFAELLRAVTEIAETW

[12] = molecular target: Serine/threonine-protein kinase 25 (Homo sapiens) (UniProt O00506); assay: Inhibition of human STK25/YSK1 using myelin basic protein as substrate at 1 uM in presence of 32P-ATP by Hotspot assay relative to control; values are per cent of control
[13] = molecular target: STE20/SPS1-related proline-alanine-rich protein kinase (Homo sapiens) (UniProt Q9UEW8); assay: Residual activity of human STK39/STLK3 using myelin basic protein as substrate at 1 uM in presence of 32P-ATP by Hotspot assay relative to control

Chain of Mitogen-activated protein kinase kinase kinase 9 (Homo sapiens) (P80192 whole entry, looked up): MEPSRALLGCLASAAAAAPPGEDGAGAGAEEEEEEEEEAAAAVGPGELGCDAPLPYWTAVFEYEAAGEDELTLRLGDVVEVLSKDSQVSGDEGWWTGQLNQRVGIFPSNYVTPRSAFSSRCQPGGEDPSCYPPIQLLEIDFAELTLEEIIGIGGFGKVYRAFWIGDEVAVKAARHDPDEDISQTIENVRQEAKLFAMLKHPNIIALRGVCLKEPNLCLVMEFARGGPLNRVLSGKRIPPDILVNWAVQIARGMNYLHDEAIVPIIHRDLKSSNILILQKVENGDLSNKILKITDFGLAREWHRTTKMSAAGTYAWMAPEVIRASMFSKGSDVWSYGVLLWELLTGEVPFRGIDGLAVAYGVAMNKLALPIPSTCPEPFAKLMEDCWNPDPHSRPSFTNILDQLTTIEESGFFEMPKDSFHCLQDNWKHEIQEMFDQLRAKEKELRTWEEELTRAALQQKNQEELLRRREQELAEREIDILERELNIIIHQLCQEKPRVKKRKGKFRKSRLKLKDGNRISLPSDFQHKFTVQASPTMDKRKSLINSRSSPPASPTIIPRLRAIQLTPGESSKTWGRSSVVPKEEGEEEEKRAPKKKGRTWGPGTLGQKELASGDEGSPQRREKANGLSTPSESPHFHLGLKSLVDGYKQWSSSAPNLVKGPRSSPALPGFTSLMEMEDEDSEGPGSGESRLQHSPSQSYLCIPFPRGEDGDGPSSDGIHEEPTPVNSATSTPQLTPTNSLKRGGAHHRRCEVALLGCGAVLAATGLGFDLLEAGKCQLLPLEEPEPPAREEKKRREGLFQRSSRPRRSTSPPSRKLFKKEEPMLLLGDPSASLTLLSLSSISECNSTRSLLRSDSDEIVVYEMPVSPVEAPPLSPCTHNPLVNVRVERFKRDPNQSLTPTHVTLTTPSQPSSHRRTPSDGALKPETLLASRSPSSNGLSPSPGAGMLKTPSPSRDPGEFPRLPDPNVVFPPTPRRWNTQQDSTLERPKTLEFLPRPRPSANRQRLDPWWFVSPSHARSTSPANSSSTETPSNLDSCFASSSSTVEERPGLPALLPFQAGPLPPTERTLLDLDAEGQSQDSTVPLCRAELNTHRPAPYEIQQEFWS
Chain of Ephrin type-A receptor 7 (Homo sapiens) (Q15375 28-998 limits assumed): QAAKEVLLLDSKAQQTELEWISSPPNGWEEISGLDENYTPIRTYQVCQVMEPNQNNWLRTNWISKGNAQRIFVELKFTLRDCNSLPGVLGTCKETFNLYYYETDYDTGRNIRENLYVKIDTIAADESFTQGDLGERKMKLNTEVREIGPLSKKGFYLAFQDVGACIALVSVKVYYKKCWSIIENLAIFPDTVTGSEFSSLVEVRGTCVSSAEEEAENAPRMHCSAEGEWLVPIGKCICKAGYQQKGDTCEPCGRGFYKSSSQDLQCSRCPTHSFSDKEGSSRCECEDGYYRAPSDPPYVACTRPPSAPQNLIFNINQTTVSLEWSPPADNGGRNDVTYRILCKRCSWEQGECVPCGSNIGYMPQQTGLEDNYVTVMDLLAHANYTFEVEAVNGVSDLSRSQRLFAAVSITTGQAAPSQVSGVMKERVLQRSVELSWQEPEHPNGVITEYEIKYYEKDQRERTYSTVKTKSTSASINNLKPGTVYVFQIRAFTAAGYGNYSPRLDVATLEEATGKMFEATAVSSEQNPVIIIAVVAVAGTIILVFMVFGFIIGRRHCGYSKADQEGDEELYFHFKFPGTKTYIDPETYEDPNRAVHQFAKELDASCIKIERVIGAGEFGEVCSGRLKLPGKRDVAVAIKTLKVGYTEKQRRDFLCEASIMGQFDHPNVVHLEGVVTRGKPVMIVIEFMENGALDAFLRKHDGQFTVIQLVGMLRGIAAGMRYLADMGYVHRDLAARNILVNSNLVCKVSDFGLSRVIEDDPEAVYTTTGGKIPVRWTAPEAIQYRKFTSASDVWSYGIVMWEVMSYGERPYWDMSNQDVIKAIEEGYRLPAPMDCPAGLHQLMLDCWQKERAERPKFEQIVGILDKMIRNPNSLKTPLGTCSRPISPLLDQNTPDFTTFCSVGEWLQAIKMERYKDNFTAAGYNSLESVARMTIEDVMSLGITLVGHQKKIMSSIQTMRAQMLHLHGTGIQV
Chain of Serine/threonine-protein kinase 25 (Homo sapiens) (O00506 whole entry, looked up): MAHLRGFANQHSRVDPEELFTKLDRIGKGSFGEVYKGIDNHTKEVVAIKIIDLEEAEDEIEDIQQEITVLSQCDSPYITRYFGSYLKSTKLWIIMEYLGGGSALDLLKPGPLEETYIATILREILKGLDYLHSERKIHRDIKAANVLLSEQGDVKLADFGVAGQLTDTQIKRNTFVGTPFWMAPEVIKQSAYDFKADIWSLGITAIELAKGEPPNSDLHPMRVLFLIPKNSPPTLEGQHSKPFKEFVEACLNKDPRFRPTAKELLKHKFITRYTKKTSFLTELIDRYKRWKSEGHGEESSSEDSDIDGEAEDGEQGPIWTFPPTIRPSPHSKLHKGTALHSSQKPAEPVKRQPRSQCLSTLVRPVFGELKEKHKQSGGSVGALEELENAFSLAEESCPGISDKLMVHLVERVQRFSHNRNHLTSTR
Chain of Receptor-interacting serine/threonine-protein kinase 2 (Homo sapiens) (O43353 whole entry): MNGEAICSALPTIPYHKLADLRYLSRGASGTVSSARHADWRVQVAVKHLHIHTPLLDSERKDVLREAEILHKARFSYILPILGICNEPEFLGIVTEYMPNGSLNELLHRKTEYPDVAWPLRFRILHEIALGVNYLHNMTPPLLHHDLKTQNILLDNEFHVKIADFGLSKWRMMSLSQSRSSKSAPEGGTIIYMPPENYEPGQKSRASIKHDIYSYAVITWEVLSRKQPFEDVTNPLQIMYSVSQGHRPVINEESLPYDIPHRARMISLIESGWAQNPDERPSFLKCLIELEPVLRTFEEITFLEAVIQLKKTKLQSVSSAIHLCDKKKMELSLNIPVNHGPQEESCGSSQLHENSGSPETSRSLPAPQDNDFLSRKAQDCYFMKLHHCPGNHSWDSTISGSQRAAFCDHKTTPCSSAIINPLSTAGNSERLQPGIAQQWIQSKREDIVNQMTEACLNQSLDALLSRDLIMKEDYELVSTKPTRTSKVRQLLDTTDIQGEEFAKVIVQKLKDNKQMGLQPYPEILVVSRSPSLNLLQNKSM
Chain of RAC-beta serine/threonine-protein kinase (Homo sapiens) (P31751 whole entry): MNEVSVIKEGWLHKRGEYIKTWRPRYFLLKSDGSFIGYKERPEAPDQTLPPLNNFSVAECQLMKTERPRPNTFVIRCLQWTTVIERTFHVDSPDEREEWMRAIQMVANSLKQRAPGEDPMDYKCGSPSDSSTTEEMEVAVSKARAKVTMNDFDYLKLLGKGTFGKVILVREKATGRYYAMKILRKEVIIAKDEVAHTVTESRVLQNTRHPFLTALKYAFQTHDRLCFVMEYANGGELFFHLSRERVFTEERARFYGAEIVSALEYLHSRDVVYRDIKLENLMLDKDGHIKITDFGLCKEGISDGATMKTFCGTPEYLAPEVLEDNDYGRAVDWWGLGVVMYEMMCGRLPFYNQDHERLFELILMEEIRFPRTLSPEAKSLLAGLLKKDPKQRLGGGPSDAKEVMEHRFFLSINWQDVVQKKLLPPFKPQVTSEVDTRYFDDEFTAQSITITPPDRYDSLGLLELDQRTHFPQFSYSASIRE
Chain of Dual specificity mitogen-activated protein kinase kinase 1 (Homo sapiens) (Q02750 whole entry): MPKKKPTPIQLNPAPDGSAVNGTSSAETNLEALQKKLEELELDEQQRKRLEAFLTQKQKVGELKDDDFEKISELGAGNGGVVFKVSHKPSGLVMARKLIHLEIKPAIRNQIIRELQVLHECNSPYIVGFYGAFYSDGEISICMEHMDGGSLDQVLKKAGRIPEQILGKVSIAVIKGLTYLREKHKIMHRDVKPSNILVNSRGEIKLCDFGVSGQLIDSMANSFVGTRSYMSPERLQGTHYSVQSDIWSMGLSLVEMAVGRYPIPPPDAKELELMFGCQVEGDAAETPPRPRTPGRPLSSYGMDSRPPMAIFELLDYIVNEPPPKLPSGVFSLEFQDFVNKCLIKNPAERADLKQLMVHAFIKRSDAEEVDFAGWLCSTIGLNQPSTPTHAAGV
Chain of Serine/threonine-protein kinase Chk2 (Homo sapiens) (O96017 whole entry): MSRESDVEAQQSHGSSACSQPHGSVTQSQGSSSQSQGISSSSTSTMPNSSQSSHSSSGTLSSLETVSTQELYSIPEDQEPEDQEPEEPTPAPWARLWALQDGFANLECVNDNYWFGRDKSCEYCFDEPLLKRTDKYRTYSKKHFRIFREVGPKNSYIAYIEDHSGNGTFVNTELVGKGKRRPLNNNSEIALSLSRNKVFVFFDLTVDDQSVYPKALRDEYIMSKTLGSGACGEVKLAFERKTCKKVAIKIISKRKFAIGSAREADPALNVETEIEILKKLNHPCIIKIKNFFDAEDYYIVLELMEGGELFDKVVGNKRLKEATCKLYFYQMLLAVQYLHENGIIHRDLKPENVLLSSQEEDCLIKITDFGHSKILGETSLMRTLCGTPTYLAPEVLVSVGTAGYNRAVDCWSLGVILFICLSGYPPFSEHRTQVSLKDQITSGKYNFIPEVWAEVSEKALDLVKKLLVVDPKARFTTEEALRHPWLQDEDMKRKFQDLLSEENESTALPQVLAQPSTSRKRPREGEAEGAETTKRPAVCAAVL

## Cc1cc(-c2cnc(N)c3c(-c4ccc5scnc5c4)csc23)n(C)n1
[1]
  residual activity: 59.7%
[2]
  inhibition: Active
[3]
  residual activity: 105%
[4]
  residual activity: 95.4%
[5]
  residual activity: 101%
[6]
  residual activity: 98.4%
[7]
  residual activity: 13.6%
[8]
  residual activity: 102%
[9]
  residual activity: 96.8%
[10]
  residual activity: 97.3%
[11]
  residual activity: 33.2%
[12]
  residual activity: 106%
[13]
  residual activity: 108%

## CC(C)S(=O)(=O)c1ccc2nccc(Nc3ccc4scnc4c3)c2c1
[1]
  residual activity: 102%
[2]
  inhibition: Active
[3]
  residual activity: 98.5%
[4]
  residual activity: 89%
[5]
  residual activity: 90.8%
[6]
  residual activity: 89.3%
[7]
  residual activity: 20.7%
[8]
  residual activity: 97%
[9]
  residual activity: 59%
[10]
  residual activity: 89.6%
[11]
  residual activity: 47.4%
[12]
  residual activity: 98.8%
[13]
  residual activity: 94.9%

## CNC(=O)c1ccc2c(c1)ncn2-c1ccc(CC(=O)OC(C)(C)C)cc1
[1]
  residual activity: 86.8%
[2]
  inhibition: inactive
[3]
  residual activity: 95.7%
[4]
  residual activity: 96.8%
[5]
  residual activity: 87.8%
[6]
  residual activity: 93.8%
[7]
  residual activity: 82.3%
[8]
  residual activity: 90.7%
[9]
  residual activity: 99%
[10]
  residual activity: 94%
[11]
  residual activity: 84.2%
[12]
  residual activity: 104%
[13]
  residual activity: 103%

Source: ChEMBL document CHEMBL5649166, “RIP3 induces apoptosis independent of pronecrotic kinase activity” (Mol Cell, 2014)
